The NIST ThermoML archive (doi:10.1016/j.fluid.2015.04.022)
Numbers after ± are expanded uncertainties.

Conditions: 298.2 K, 101.33 kPa, Liquid; for viscosity: Falling or rolling sphere viscometry; for mass density: Vibrating tube method

viscosity | mass density | Structure (SMILES)
4.57 ± 0.13 mPa·s | 857.38 ± 0.28 kg/m3 | C=CC(C)(O)CCC=C(C)C (centres undefined) [3,7-dimethyl-1,6-octadien-3-ol]
0.92 ± 0.12 mPa·s | 841.35 ± 0.36 kg/m3 | C=C(C)[C@H]1CC=C(C)CC1 [(R)-1-methyl-4-(1-methylethenyl)cyclohexene]
